The values that follow come from ChEMBL document CHEMBL6115018, “MrgX2-Targeting Ligand Screen for Antipseudoallergic Agents by Immobilized His-Tag-Fused Protein Technology” (J Med Chem, 2025).

Activity calls are given as the source filed them. No cut-off for these calls is given here.

Data set [1] addresses T1, Mas-related G-protein coupled receptor member X2 (Homo sapiens) (UniProt Q96LB1).
T1 sequence (whole entry): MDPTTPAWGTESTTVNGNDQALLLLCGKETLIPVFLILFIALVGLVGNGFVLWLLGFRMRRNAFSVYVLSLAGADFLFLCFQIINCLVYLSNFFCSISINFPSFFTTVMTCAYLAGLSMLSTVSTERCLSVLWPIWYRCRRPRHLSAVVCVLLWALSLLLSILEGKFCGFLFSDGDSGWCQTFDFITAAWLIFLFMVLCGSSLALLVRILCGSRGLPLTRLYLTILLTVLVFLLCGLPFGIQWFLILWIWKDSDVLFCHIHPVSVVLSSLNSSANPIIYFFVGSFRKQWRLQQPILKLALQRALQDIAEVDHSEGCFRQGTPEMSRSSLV
Kind of data set: Competitive binding affinity to MrgX2 (unknown origin) assessed as retention time of compound at 8 x 10^-8mol/L by zonal elution method (reference value: 58.73 min). The conditions noted are these: dose 8.0 10^-8mol/L.

Data set [2] addresses T1, Mas-related G-protein coupled receptor member X2 (Homo sapiens). Put plainly: Competitive binding affinity to MrgX2 (unknown origin) assessed as retention time of compound at 1 x 10^-7mol/L by zonal elution method (reference value: 58.73 min). The conditions noted are these: dose 1.0 10^-7mol/L.
The target is the same in data set [3]. Kind of data set: Competitive binding affinity to MrgX2 (unknown origin) assessed as retention time of compound at 4 x 10^-8mol/L by zonal elution method (reference value: 58.73 min). The conditions noted are these: dose 4.0 10^-8mol/L.
Data set [4] has the same target. Kind of data set: Competitive binding affinity to MrgX2 (unknown origin) assessed as retention time of compound at 2 x 10^-8mol/L by zonal elution method (reference value: 58.73 min). The conditions noted are these: dose 2.0 10^-8mol/L.
In data set [5] the test system is Mus musculus. Put plainly: Anti-pseudoallergic activity in C48/80-induced male C57BL/6 mouse model assessed as reduction in serum histamine release at 1 to 10 mg/kg, preadministered with compound via gavage for 2 hrs followed by C48/80 administration and measured after 1 hrs by UHPLC-ESI-MS/MS analysis. The conditions noted are these: dose 1-10 mg/kg, time 3.0 hrs. Type of data set: functional, organism-based.

In data set [6] the test system is Mus musculus. Kind of data set: Anti-pseudoallergic activity in C48/80-induced male C57BL/6 mouse model assessed as reduction in evans blue extravasation at 1.0 mg/mL administered via gavage for 2 hrs by absorbance based assay. Type of data set: functional, organism-based.
Data set [7] relates to LAD2. Put plainly: Anti-pseudoallergic activity in human LAD2 cells assessed as inhibition of SP-induced beta-aminohexosidase release at 50 uM preincubated for 30 mins followed by SP addition and measured after 30 mins by absorbance based microplate reader analysis relative to control. The note with it: LAD2, 1 h, time 60 min. It counts as functional.
Data set [8] has as its system LAD2. Put plainly: Anti-pseudoallergic activity in human LAD2 cells assessed as inhibition of SP-induced TNF-alpha release incubated for 6 hrs by ELISA analysis. It counts as functional, cell-based. The conditions noted are these: dose 1-10 µM. In general terms: ELISA stands for enzyme-linked immunosorbent assay.
Data set [9] relates to Mus musculus. Kind of data set: Anti-pseudoallergic activity in C48/80-induced male C57BL/6 mouse model assessed as reduction in paw thickness at 0.5 to 1.0 mg/mL administered via gavage for 2 hrs by vernier caliper based analysis. It counts as functional, organism-based. The note with it: dose 0.5-1 mg/ml.
Data set [10] relates to LAD2. Put plainly: Anti-pseudoallergic activity in human LAD2 cells assessed as inhibition of SP-induced beta-aminohexosidase release preincubated for 30 mins followed by SP addition and measured after 30 mins by absorbance based microplate reader analysis. Type of data set: functional, cell-based.
For data set [11], the system named is LAD2. Put plainly: Anti-pseudoallergic activity in human LAD2 cells assessed as inhibition of C48/80-induced beta-aminohexosidase release preincubated for 30 mins followed by SP addition and measured after 30 mins by absorbance based microplate reader analysis. Type of data set: functional, cell-based.
A short description of data set [12]: Cytotoxicity against human LAD2 cells assessed as cell viability incubated for 24 hrs by CCK8 assay relative to control. Type of data set: toxicity, cell-based. The note with it: read-out: Activity. On the technique in general: Tetrazolium dyes change colour on reduction, which living cells bring about.
For data set [13], the system named is Mus musculus. Kind of data set: Anti-pseudoallergic activity in C48/80-induced male C57BL/6 mouse model assessed as reduction in mast cell degranulation at 1 mg/mL administered via gavage for 2 hrs by Toluidine blue staining based analysis. Type of data set: functional, organism-based.
The test system of data set [14] is LAD2. Kind of data set: Anti-pseudoallergic activity in human LAD2 cells assessed as inhibition of SP-induced histamine release preincubated for 30 mins followed by SP addition and measured after 30 mins by UHPLC-ESI-MS/MS analysis. Type of data set: functional, cell-based. The note with it: dose 1-10 µM, time 60.0 min.

Regarding `CN(C)[C@@H]1CCN(c2cc(-c3ccccc3)nc3ccnn23)C1`, the Retention time in [1] was 29.2 min; in data set [2], 23.7 min; in [3], 46.3 min; in [4] it was 56.1 min.
A word on the inhibition: it is the share of the control response that was lost under treatment. For orientation: IC50 means the concentration that inhibits the measured activity by half. For `O=C(CSc1nnc(-c2ccccc2)c(-c2ccccc2)n1)Nc1ccc(Cl)cc1Cl`, the result in the data set on Mus musculus [5], with Mus musculus [6], in the data set with Mus musculus [9] and in the data set with Mus musculus [13] was Active. The inhibition at 50 µM in the data set with LAD2 [7] amounted to 75%. In addition, the Activity result with LAD2 [8], in the data set on LAD2 [10] (time 60.0 min), with LAD2 [11] (time 60.0 min) and in the data set with LAD2 [14] was “Dose-dependent-effect” each time. Further, the half-inhibitory concentration (IC50) in the data set with LAD2 [10] was determined as 4.9 µM; in the data set on LAD2 [11], 6.18 µM. In data set [12], the viability at 24 h was over 85%.
